In patent US20200009247A1, “DRUG COMBINATIONS” (ASTEX PHARMACEUTICALS, INC., priority 2013, published 2020):
Values after ≈ are worked out from the molar mass of the structure shown. Where two headings read alike, the source gives them in different places. Each block holds one molecule with its values, some of them ahead of it.

Experiments:
[1] = test system: DNA methylation (CMV-EE210 cell line, silenced GFP transgene); test: cell-based green fluorescent protein (GFP) assay for demethylating activity; details: concentration at which GFP expression level is reduced from g3 to g1/2; read-out: GFP50
Experimental: The demethylating activity of the compounds was tested in a cell-based green fluorescent protein (GFP) assay. In the assay, a decrease in methylation resulting from exposure to a methylation inhibitor leads to GFP expression, and is readily scored.
The CMV-EE210 cell line containing the epigenetically silenced GFP transgene was used to assay for reactivation of GFP expression by flow cytometry. CMV-EE210 was made by transfecting NIH 3T3 cells with the pTR-UF/UF1/UF2 plasmid, which contained pBS(+) (Stratagene, Inc.) with a cytomegalovirus (CMV) promoter driving a humanized GFP gene adapted for expression in mammalian cells. After transfection, high-level GFP expressing cells were initially selected by FACS analysis and sorting using a MoFlo cytometer (Cytomation, Inc.).
Decitabine, a potent inhibitor of mammalian DNMT1, was used as a positive control. […] Cells were then seeded to 30% confluence (˜5000 cell/well) in a 96-well plate containing the test compounds, and grown for three days in at 37 ° C. in 5% CO2.
The plates were examined under a fluorescent microscope using a 450-490 excitation filter (13 filter cube, Leica, Deerfield Ill.). Wells were scored gl positive, g2 positive, or g3 if GFP was expressed in 10%, 30%, >75% of viable cells, respectively.
Table 1 provides the results of the test for decitabine and the test compounds as DNA methylation inhibitors. GFP50 is the concentration of an inhibitor at which the Green Fluorescent Protein (GFP) expression level is reduced from g3 to g1/2.

[2] = single dose pharmacokinetics in monkeys; details: single dose 10 mg/kg
[3] = stability in solvent formulations by HPLC; assay type: physicochemical
Experimental: The stability of a compound of the invention in various formulations under various storage conditions was investigated. Stability was determined by HPLC at the designated time intervals.

solubility = assay type: physicochemical
Excerpt: The good chemical stability taken together with the excellent solubility identified the glycol/glycerin/ethanol (65:25:10) system as a formulation for use in animal experiments.

LINE-1 DNA methylation = LINE-1 DNA methylation in blood samples; assay type: in vivo, cynomolgus monkeys; details: monkey blood samples; repeat dose 3 mg/kg; until day 22; p<0.05
Experimental: FIG. 3 illustrates the decrease in LINE1 methylation levels observed in blood samples drawn from cynomolgus monkeys on various days (D) after pretest.
In a repeat dose study, monkeys were dosed 3× weekly subcutaneously (3 mg/kg). […] (FIGS. 1 and 2.) Pharmacodynamic properties (not shown) were monitored and were acceptable. Blood samples were drawn periodically to assay LINE-1 DNA methylation.

[4] = test system: murine mammary carcinoma cells TS/A; test: anti-tumor effect in TS/A murine breast cancer model (Example 6); assay type: in vivo, Balb/c mice; details: day 26 vs control mice; SGI-110 3 mg/kg SQ QDx5 days 1-5; anti-CTLA-4 mAb 100 μg at days 8, 11, 14 where combined
Experimental: TS/A is a murine mammary carcinoma originated from a moderately differentiated, weakly immunogenic mammary adenocarcinoma spontaneously arising in a 20-mo-old female BALB/c mouse.
The anti-mouse CTLA-4 was the CTLA-4 mAb 9H10, obtained from BioXCell (West Lebanon, N.H., USA), dosed at 100 μg/mouse in 200 μl (ip).
Balb/c mice (6/group) were injected SQ in the flank region with murine mammary carcinoma cells TS/A (2×10^5).
Control mice were injected with diluent for reconstitution. The effectiveness and tolerability of treatments was evaluated by tumor volume and body weight measurements, respectively.

SMILES: Nc1ncn([C@H]2CC(OP(=O)(O)OC[C@H]3O[C@@H](n4cnc5c(=O)[nH]c(N)nc54)CC3O)[C@@H](CO)O2)c(=O)n1 (stereo partly shown)
EC50 [1]: 400 nM

SMILES: Nc1ncn([C@H]2CC(O)[C@@H](COP(=O)(O)OC3C[C@H](n4cnc5c(=O)[nH]c(N)nc54)O[C@@H]3CO)O2)c(=O)n1 (stereo partly shown)
EC50 [1]: 700 nM

SMILES: Nc1ncn([C@H]2C[C@H](O)[C@@H](CO)O2)c(=O)n1 [Decitabine, 5-aza-2′-deoxycytidine]
EC50 [1]: 500 nM
AUC [2]: 340 ng·h/mL
Cmax [2]: 160 ng/mL

% decomposition per hour ([3]; DMSO/water (1:1, w/w), 25° C./60% relative humidity): 0.72
Percent compound detected ([3]; DMSO/water (1:1, w/w), 25° C./60% relative humidity, 5 hours): 90.1%
Percent compound detected ([3]; DMSO/water (1:1, w/w), 25° C./60% relative humidity, time point 0): 93.7%
% decomposition per hour ([3]; DMSO/water (3:1, w/w), 25° C./60% relative humidity): 0.10
Percent compound detected ([3]; DMSO/water (3:1, w/w), 25° C./60% relative humidity, 24 hours): 94.2%
Percent compound detected ([3]; DMSO/water (3:1, w/w), 25° C./60% relative humidity, time point 0): 96.6%
% decomposition per hour ([3]; Propylene Glycol/Glycerin/Ethanol (65:25:10, w/w/w), 2-8° C.): 0.00032
Percent compound detected ([3]; Propylene Glycol/Glycerin/Ethanol (65:25:10, w/w/w), 2-8° C., 3 months): 95.1%
Percent compound detected ([3]; Propylene Glycol/Glycerin/Ethanol (65:25:10, w/w/w), 2-8° C., time point 0): 95.8%
% decomposition per hour ([3]; Propylene Glycol/Glycerin/Ethanol (65:25:10, w/w/w), 25° C./60% relative humidity): 0.013
Percent compound detected ([3]; Propylene Glycol/Glycerin/Ethanol (65:25:10, w/w/w), 25° C./60% relative humidity, 3 months): 67.6%
Percent compound detected ([3]; Propylene Glycol/Glycerin/Ethanol (65:25:10, w/w/w), 25° C./60% relative humidity, time point 0): 95.8%
% decomposition per hour ([3]; Propylene glycol/Glycerin (70:30, v/v), room temperature): 0.021
Percent compound detected ([3]; Propylene glycol/Glycerin (70:30, v/v), room temperature, 24 hours): 96.3%
Percent compound detected ([3]; Propylene glycol/Glycerin (70:30, v/v), room temperature, time point 0): 96.8%
stability in anhydrous DMSO ([3]; anhydrous DMSO): stable
improvement in stability ([3]; combined effects of cooling plus addition of ethanol to the propylene glycol/glycerin system): 66 fold
improvement in stability ([3]; propylene glycol/glycerin/ethanol (65:25:10), changing from warmer to colder storage conditions): 40 fold
% decomposition per hour ([3]; water, pH 7.0, 2-8° C.): 0.14
Percent compound detected ([3]; water, pH 7.0, 2-8° C., 5 hours): 95.1%
Percent compound detected ([3]; water, pH 7.0, 2-8° C., time point 0): 95.8%
% decomposition per hour ([3]; water, pH 7.0, room temperature): 1.1
Percent compound detected ([3]; water, pH 7.0, room temperature, 5 hours): 90.4%
Percent compound detected ([3]; water, pH 7.0, room temperature, time point 0): 95.8%
solubility (solubility; propylene glycol/glycerin/ethanol (65:25:10), organic solvent or mixture, read-out: maximum solubility): 130 to 150 mg/mL (≈ 233 to 269 mM)
solubility (solubility; water, aqueous, read-out: aqueous solubility): 20 mg/mL (≈ 35.9 mM)
AUC [2]: 1,469 ng·hr/mL
SMILES: Nc1ncn([C@H]2C[C@H](OP(=O)(O)OC[C@H]3O[C@@H](n4cnc5c(=O)[nH]c(N)nc54)C[C@@H]3O)[C@@H](CO)O2)c(=O)n1 [SGI-110]
LINE-1 DNA methylation vs level prior to initial dosing (LINE-1 DNA methylation): Decreases
tumor growth inhibition [4]: 62.9%
